Assay results as given in paper PMC8899577, “Targeting the anti-apoptotic Bcl-2 family proteins: machine learning virtual screening and biological evaluation of new small molecules” (Theranostics, 2022).

Legend:
[1] = test system: H1299 cells; experiment: Tumor sphere formation assay, H1299; type: cell-based, Human; settings: 20 µM for 72 h, respect to controls
Method: For tumor sphere assay, cells were recovered after treatment, counted and seeded in 24-well ultralow attachment surface plates at a density of 5 × 10^2 cells/well and cultured as previously described. After 10 days, spheres were photographed and counted. The percentage of spheres normalized to the number of seeded cells was calculated.
Figure 4 Analysis of the effect of IS20 and IS21 on cell viability, clonogenic ability and tumor sphere formation in cancer cells. (A) Analysis of cell viability by MTT assay in M14, H1299, HCT116 and MDA-MB-231 cell lines treated with IS20 or IS21 (20 μM for 72 h). The results are reported as “viability of treated cells/viability of control cells (Ctrl)” × 100. (B) Representative images and quantification of clonogenic ability evaluated in M14 and H1299 cells treated with IS20 or IS21 (20 μM for 72 h). Results are reported as percentage of clonogenicity of treated versus control cells. (C) Quantification of tumor sphere formation of M14 and H1299 cells treated with IS20 or IS21 (20 μM for 72 h). Results are reported as percentage of tumor sphere formation of treated versus control. (A-C) Data are reported as mean ± SD of three independent experiments. p-values were calculated between control (Ctrl) and treated cells, ** p < 0.001 and *** p < 0.0001.

[2] = test system: MDA-MB-231 cells; experiment: Western blot of PARP1 cleavage, MDA-MB-231; type: cell-based, Human; settings: 72 h
Method: Western blot analyses of total protein extracts were performed as previously described. Immunodetection was performed using antibodies directed to poly (ADP-ribose) polymerase (PARP; BD Biosciences San Diego, CA, USA), LC3B (Cell Signaling Technology, Danvers, MA), HSP72/73 (Calbiochem, EMD Biosciences, La Jolla, CA), Bcl-2 (SC-509, Santa Cruz Biotechnology Inc, Dallas, TX, USA), Bcl-xL (SC-271121, Santa Cruz Biotechnology Inc), Mcl-1 (SC-12756, Santa Cruz Biotechnology Inc) α-tubulin (Santa Cruz Biotechnology Inc) actin (Sigma-Aldrich, St. Louis, Missouri, USA). Anti-rabbit or anti-mouse immunoglobulin G-horseradish peroxidase-conjugated antibodies (Amersham Biosciences, Freiburg, Germany) were used as secondary antibody. Images were acquired by Image Lab Software (Bio-Rad, Hercules, CA, USA), using a ChemiDoc System instrument (Bio-Rad). […]
Figure 5 Analysis of apoptosis induction by IS20 and IS21 in leukemia, melanoma and NSCLC cells. […] (G) Flow cytometric quantification of cells in the subG1 peak of cell cycle distribution by propidium iodide staining in HL60 cell line treated with IS20 or IS21 (20 μM for 24 h) and in M14, H1299 and MDA-MB-231 cell lines treated with IS20 or IS21 (20 μM for 72 h). Data are reported as mean ± SD of three independent experiments. p-values were calculated between control (Ctrl) and treated cells, * p < 0.05. […]

[3] = test system: HCT116 colon cancer cells; experiment: Cell viability by MTT, HCT116; type: cell-based, Human; settings: 20 µM for 72 h, vs control
Method: The effect of compounds on cell viability was performed by measuring 3-[4,5-dimethylthiazol-2-yl]-2,5-diphenyltetrazolium bromide inner salt (MTT, Sigma-Aldrich) dye absorbance (solid tumor cells) or by quantization of ATP present in metabolically active cells using CellTiter-Glo® Luminescent (Promega, Fitchburg, Wisconsin, USA) (hematologic cells) following manifacturer's protocol. To evaluate the cell colony-forming ability, cell suspension from different samples was seeded into 60-mm Petri dishes. After 10 days, colonies were stained with 2% methylene blue in 95% ethanol and counted (1 colony > 50 cells). The surviving fractions were calculated as the ratio of absolute survival of the treated sample/survival of DMSO-treated control sample.
Figure 4 Analysis of the effect of IS20 and IS21 on cell viability, clonogenic ability and tumor sphere formation in cancer cells. […] (B) Representative images and quantification of clonogenic ability evaluated in M14 and H1299 cells treated with IS20 or IS21 (20 μM for 72 h). […] (C) Quantification of tumor sphere formation of M14 and H1299 cells treated with IS20 or IS21 (20 μM for 72 h). […] (A-C) Data are reported as mean ± SD of three independent experiments. p-values were calculated between control (Ctrl) and treated cells, ** p < 0.001 and *** p < 0.0001.

[4] = biological target: Bcl-2 (Homo sapiens, UniProt P10415); experiment: SPR binding to immobilized Bcl-2; settings: for Kd: SPR, 25 °C, 2-site fit, highest affinity site
Method: FastStep experiments were performed with a SensiQ Pioneer apparatus. Bcl-2 immobilization on COOH5 sensorchips was carried out essentially as previously reported, [40]. All the experiments were carried out at 25 °C in degassed HEPES 20 mM, pH 7.4, NaCl 150 mM, 0.005% surfactant P20 + 2% DMSO (HBSP2%D). […] Each sensorgram is the average of at least three experiments. The decrease in Response Units (RU) after 165 s indicates analyte dissociation from the immobilized Bcl-2 upon HSBP2%D buffer injection. Control SPR experiments were carried out measuring sensorgrams on Bcl-xL and Mcl-1 (ligands) immobilized on COOH5 sensorchips as previously reported at 25 °C in degassed HBSP2%D buffer. […] Each sensorgram is the average of at least three experiments. The decrease in RU after 180 s indicates analyte dissociation from the immobilized ligands upon HSBP2%D buffer injection. Kinetic evaluation of the sensorgrams was carried out using the Qdat 4.0 program; best fittings were obtained with 2 sites and indicated in red (reported KD values refer to dissociation constants of the highest affinity site).
Figure 2 SPR analysis of the interaction between putative inhibitors of Bcl-2 anti-apoptotic members and Bcl-2 protein. Bcl-2 was immobilized via amine coupling onto a COOH5 sensorchip; Bcl-2 family inhibitors (analytes) were injected at a flow rate = 100 μL/min, at the following concentrations. 0-30 s: 0.625 μM; 31-60 s: 1.25 μM; 61-90 s: 2.5 μM; 91-120 s: 5 μM; 121-150 s: 10 μM; 151-165 s: 20 μM. The increase in Response Units (RU) relative to baseline indicates complex formation between the immobilized Bcl-2 ligand and the analytes upon Bcl-2 family inhibitors injection. The decrease in RU after 165 s indicates analyte dissociation from the immobilized Bcl-2 upon buffer injection. Full fittings with 2 sites are indicated in red. The fitted KD values are the following.

Sequence of Bcl-2 (P10415 whole entry): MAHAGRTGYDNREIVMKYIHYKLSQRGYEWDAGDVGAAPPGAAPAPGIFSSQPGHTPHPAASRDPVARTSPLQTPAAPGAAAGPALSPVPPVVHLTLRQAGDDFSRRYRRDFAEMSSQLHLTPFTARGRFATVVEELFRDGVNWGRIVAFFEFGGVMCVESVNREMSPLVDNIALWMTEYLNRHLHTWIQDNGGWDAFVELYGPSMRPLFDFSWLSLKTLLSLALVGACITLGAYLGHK

SMILES	decrease of sphere formation capacity, H1299 [1]	PARP1 cleavage, MDA-MB-231 [2]	cell viability HCT116 [3]	Kd [4]	selectivity for Bcl-2 than for Mcl-1 ([4]; selectivity index from KD)	selectivity for Bcl-2 than for Bcl-xL ([4]; selectivity index from KD)
CCCCOc1ccc(C2/C(=C(\O)c3ccc4c(c3)CC(C)O4)C(=O)C(=O)N2c2nnc(SCc3ccc(Cl)cc3)s2)cc1OCC (centres unmarked) [IS20]	about 60%	not evident	not significantly perturbed	0.32 ± 0.09 µM	12 times	
CCCCCOc1ccc(C2/C(=C(\O)c3ccc4c(c3)CC(C)O4)C(=O)C(=O)N2c2nnc(SCc3ccc(Cl)cc3)s2)cc1OCC (centres unmarked) [IS21]	about 60%	not evident	not significantly perturbed	0.19 ± 0.07 µM	~6 times	about 2.7 times
